Test results published in patent US9017737B2, “Use of cannabinoids in combination with an anti-psychotic medicament” (priority 2008, dated 2015).

How the values were obtained:
rat/Wistar [1] = test: Aripiprazole-induced catalepsy; assay type: in vivo; settings: ip, 1 hour after aripiprazole po
Description: (§1) Animals were subjected to a protocol as illustrated in FIG. 5.
(§2) Rats were made to fast from 6 PM on the day before the experiment until sacrifice. Rats were weighed and orally (PO) administered aripiprazole. […] For measurement of catalepsy, the observations were performed three times at each observation time point. The animals were forced to hang with their right forepaw on the upper edge of a steel can (diameter: 6 cm, height: 10 cm). When the animals remained in the unnatural vertical position for 30 seconds or longer, they were judged to be positive responders for catalepsy.

rat/Wistar [2] = test: Aripiprazole-induced ptosis; assay type: in vivo; settings: ip, 1 hour after aripiprazole po
Description: as §1, §2
The measurement of ptosis was performed as follows. Each animal was individually taken from the home cage and put on the experimenter's hand to observe the eyes. The ptosis score was determined for both eyes as described below, and the scores for the two eyes were added to obtain the total score (maximum score, 8) • 0: Normal • 1: Mild ptosis (upper eyelid covered ¼ of the eye) • 2: Moderate ptosis (upper eyelid covered ½ of the eye) • 3: Severe ptosis (upper eyelid covered ¾ of the eye) • 4: Complete ptosis (upper eyelid covered the entire eye)

rat isolated aortae = test: In vitro vascular studies by wire myography; settings: for Time-dependent relaxation of the rat aorta: 2 h (120 min), pre-contracted aortae
3T3L1 cells = test: Induction of adipocyte differentiation (Oil Red O staining); assay type: cell-based; settings: treated for 8 days
[3] = tested on: small resistance mesenteric vessels and aorta; test: Chronic treatment of rats with CBD: vascular responses in isolated arteries; assay type: in vivo, rat; settings: animals treated for 2 weeks
PPARγ = target: T1, PPARγ (Homo sapiens, UniProt P37231); test: Transcriptional transactivation (luciferase reporter gene) assay; assay type: cell-based; settings: any concentration tested; in words
T1 construct: expressed in transfected cells
T1 sequence (P37231 1-505): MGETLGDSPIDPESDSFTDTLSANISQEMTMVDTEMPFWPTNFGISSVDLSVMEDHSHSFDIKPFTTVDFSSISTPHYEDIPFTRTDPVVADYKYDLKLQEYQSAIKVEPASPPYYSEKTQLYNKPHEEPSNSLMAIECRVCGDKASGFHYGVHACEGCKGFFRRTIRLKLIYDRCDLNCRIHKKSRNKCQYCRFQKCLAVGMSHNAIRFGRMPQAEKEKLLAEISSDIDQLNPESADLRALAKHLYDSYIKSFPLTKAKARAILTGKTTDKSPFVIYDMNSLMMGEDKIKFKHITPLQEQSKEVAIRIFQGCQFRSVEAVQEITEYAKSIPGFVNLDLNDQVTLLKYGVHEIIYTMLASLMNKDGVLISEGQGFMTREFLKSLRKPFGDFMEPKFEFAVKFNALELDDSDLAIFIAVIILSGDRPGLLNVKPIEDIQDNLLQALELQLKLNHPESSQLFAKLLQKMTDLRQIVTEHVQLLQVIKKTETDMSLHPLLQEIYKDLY
T1 sequence (P19793 1-462 partner): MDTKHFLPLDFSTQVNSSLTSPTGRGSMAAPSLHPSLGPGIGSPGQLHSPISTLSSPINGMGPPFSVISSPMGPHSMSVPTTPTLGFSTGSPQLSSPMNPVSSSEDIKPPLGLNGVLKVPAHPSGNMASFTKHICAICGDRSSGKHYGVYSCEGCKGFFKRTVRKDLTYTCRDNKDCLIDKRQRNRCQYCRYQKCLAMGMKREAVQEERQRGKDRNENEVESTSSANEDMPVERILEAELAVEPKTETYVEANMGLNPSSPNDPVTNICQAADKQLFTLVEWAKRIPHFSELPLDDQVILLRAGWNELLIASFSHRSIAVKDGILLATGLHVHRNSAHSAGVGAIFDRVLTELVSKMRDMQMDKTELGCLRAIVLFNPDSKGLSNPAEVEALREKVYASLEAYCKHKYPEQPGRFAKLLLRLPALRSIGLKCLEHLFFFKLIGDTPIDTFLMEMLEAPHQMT
Description: In vitro vascular studies were carried out in rat isolated aortae by wire myography. PPARγ activation was investigated using reporter gene assays, a PPARγ competition-binding assay and an adipogenesis assay.

C=C(C)[C@@H]1CCC(C)=C[C@H]1c1c(O)cc(CCCCC)cc1O [CBD, cannabidiol]
Aripiprazole-induced catalepsy in rats (rat/Wistar [1]; 120 mg/kg): significantly decreased
Aripiprazole-induced ptosis in rats (rat/Wistar [2]; 120 mg/kg): significantly decreased
Time-dependent relaxation of the rat aorta (rat isolated aortae; 10 μM): 69.7±4.0 % relaxation
Residual relaxation (vasorelaxant effect minus the vasorelaxant effect of vehicle and time) (rat isolated aortae; 10 μM, after 2 h): 50.1±3.3 % relaxation
Basal tension over time (rat isolated aortae; 2 h): -0.03 ± 0.01 g
Time-dependent vascular responses with the CB1 receptor antagonist AM251 (rat isolated aortae; AM251 1 μM): did not significantly affect
Residual vasorelaxant effect in the presence of the PPARγ receptor antagonist GW9662 (rat isolated aortae; GW9662 1 μM, after 1 h of incubation): significantly reduced
Residual vasorelaxant effect in the presence of the nitric oxide synthase inhibitor L-NAME (rat isolated aortae; L-NAME 300 μM, vs control conditions): not different
Vascular response over time after pre-treating arteries with PTX or capsaicin (rat isolated aortae; PTX 200 ng ml−1, 2 h or capsaicin 10 μM, 1 h): no effect
Residual vasorelaxant effects with the CB2 receptor antagonist SR144528 (rat isolated aortae; SR144528 1 μM, between 45 min to 90 min): significantly inhibited
Potency and maximal contractile response to the re-introduction of calcium (rat isolated aortae; calcium free, high potassium Krebs-Hensleit solution, 1 μM to 30 μM, concentration-dependent): significantly reduced
Vasorelaxant effect in arteries contracted with a high potassium buffer (rat isolated aortae; compared with control): no difference
Vasorelaxant effect in vessels where tone was induced with U46619 in calcium free buffer (rat isolated aortae; compared with control): significantly blunted
Vasorelaxant effect in endothelium-denuded and control aortae (rat isolated aortae; endothelium-denuded): similar
Differentiation of 3T3 L1 cells to adipocytes (fat droplet accumulation, Oil Red O) (3T3L1 cells): signs of fat droplet accumulation were apparent at all concentrations tested
Maximal response to methoxamine in the aorta [3]: 1.63±0.21 g increase tension
Potency of acetylcholine (pEC50) in the aorta [3]: 5.37±0.40
Potency of methoxamine (pEC50), small resistance mesenteric vessels [3]: 5.79±0.10

COc1ccc(CCN(C)CCCC(C#N)(c2ccc(OC)c(OC)c2)C(C)C)cc1OC (stereo not drawn) [verapamil, reference compound]
Vasorelaxation of pre-constricted vessels (rat isolated aortae; more rapid onset than CBD): significant vasorelaxation

CCCc1cc(O)c2c(c1)OC(C)(C)[C@@H]1CCC(C)=C[C@@H]21 [THCV, tetrahydrocannabivarin]
Aripiprazole-induced catalepsy in rats (rat/Wistar [1]; 60 mg/kg): significantly decreased
Aripiprazole-induced ptosis in rats (rat/Wistar [2]; 60 mg/kg): significantly decreased
Time-dependent relaxation of the rat aorta (rat isolated aortae; 10 μM): 28.7±4.6 % relaxation
Effect on tone in pre-contracted aortae (rat isolated aortae; 10 μM, in words): no effect on tone until after 105 minutes
PPARγ transcriptional activity (PPARγ): no effect
